Measurements reported in US9907800B2, “Kinase inhibitors and method of treating cancer” (University Health Network, priority 2010, dated 2018).
Structures can show the parent of a compound that is named as a salt.

Experiments:
human PLK4 = human PLK4 (Homo sapiens (Human), UniProt O00444); assay: PLK4 inhibition assay (indirect ELISA); format: biochemical; conditions: read-out: PLK4 IC50 Ranges
Aurora B = Aurora B (Homo sapiens (Human), UniProt Q96GD4); assay: Aurora B inhibition assay (Z-Lyte); format: biochemical; conditions: read-out: Aurora B IC50 Ranges
Sequence of Aurora B (Q96GD4 whole entry): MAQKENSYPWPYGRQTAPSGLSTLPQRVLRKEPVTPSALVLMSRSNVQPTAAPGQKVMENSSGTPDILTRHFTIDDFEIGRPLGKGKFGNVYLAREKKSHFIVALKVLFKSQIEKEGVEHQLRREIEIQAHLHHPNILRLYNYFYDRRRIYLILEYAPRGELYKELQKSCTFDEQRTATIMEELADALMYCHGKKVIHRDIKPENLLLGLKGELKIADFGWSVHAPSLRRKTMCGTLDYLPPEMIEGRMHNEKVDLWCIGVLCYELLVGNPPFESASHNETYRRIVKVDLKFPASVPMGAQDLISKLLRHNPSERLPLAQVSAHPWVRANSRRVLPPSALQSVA

Sequence of human PLK4 (O00444 1-391): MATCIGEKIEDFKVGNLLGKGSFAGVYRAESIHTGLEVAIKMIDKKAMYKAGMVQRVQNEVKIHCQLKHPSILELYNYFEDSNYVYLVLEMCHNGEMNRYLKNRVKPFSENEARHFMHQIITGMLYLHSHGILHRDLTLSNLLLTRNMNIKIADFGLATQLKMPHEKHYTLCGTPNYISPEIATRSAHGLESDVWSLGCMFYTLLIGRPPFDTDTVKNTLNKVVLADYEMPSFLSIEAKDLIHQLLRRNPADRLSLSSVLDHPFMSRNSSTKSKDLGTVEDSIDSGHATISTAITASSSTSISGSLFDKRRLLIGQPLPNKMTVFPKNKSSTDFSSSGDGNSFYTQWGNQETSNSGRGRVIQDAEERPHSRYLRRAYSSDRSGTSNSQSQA

Row | IC50 (human PLK4) [nM] | IC50 (Aurora B) [nM] | SMILES
1 | < 100 | < 100 | COc1ccc2c(c1)[C@]1(C[C@H]1c1ccc3c(-c4ccc5c(c4)CN(C)CC5)n[nH]c3c1)C(=O)N2 [Example A70, (1R,2S)-5′-methoxy-2-(3-(2-methyl-1,2,3,4-tetrahydroisoquinolin-7-yl)-1H-indazol-6-yl)spiro[cyclopropane-1,3′-indolin]-2′-one 2,2,2-trifluoroacetate salt]
2 | < 100 | < 100 | COc1ccc2c(c1)[C@]1(C[C@H]1c1ccc3c(/C=C/c4ccc(CN5CCCOCC5)cc4)n[nH]c3c1)C(=O)N2 [Example A73, (1R,2S)-(E)-2-(3-(4-((1,4-oxazepan-4-yl)methyl)styryl)-1H-indazol-6-yl)-5′-methoxyspiro[cyclopropane-1,3′-indolin]-2′-one 2,2,2-trifluoroacetate salt]
3 | < 100 | < 100 | CN1CCc2cc(/C=C/c3n[nH]c4cc([C@@H]5C[C@@]56C(=O)Nc5ccccc56)ccc34)ccc2C1 [Example A74, (1R,2S)-2-(3-((E)-2-(2-methyl-1,2,3,4-tetrahydroisoquinolin-6-yl)vinyl)-1H-indazol-6-yl)spiro[cyclopropane-1,3′-indolin]-2′-one 2,2,2-trifluoroacetate salt]
4 | < 100 | < 100 | COc1ccc2c(c1)[C@]1(C[C@H]1c1ccc3c(/C=C/c4ccc5c(c4)CCN(C)C5)n[nH]c3c1)C(=O)N2 [Example A75, (1R,2S)-5′-methoxy-2-(3-((E)-2-(2-methyl-1,2,3,4-tetrahydroisoquinolin-6-yl)vinyl)-1H-indazol-6-yl)spiro[cyclopropane-1,3′-indolin]-2′-one 2,2,2-trifluoroacetate salt]
5 | < 100 | < 100 | COc1ccc2c(c1)[C@]1(C[C@H]1c1ccc3c(/C=C/c4ccc(OC5CCN(C)CC5)cc4)n[nH]c3c1)C(=O)N2 [Example A79, (1R,2S)-(E)-5′-methoxy-2-(3-(4-(1-methylpiperidin-4-yloxy)styryl)-1H-indazol-6-yl)spiro[cyclopropane-1,3′-indolin]-2′-one 2,2,2-trifluoroacetate salt]
6 | < 100 | < 100 | COc1ccc2c(c1)[C@]1(C[C@H]1c1ccc3c(/C=C/c4ccc(CN5CCCC5)cc4)n[nH]c3c1)C(=O)N2 [Example A83, (1R,2S)-(E)-5′-methoxy-2-(3-(4-(pyrrolidin-1-ylmethyl)styryl)-1H-indazol-6-yl)spiro[cyclopropane-1,3′-indolin]-2′-one 2,2,2-trifluoroacetate]
7 | < 100 | < 100 | COc1ccc2c(c1)[C@]1(C[C@H]1c1ccc3c(-c4ccc(N5CCNCC5)cc4)n[nH]c3c1)C(=O)N2C [Example A101, (1R,2S)-5′-methoxy-1′-methyl-2-(3-(4-(piperazin-1-yl)phenyl)-1H-indazol-6-yl)spiro[cyclopropane-1,3′-indolin]-2′-one 2,2,2-trifluoroacetate]
8 | < 100 | < 100 | COc1ccc2c(c1)[C@]1(C[C@H]1c1ccc3c(-c4ccc5nccn5c4)n[nH]c3c1)C(=O)N2 [Example A107, (1R,2S)-2-(3-(imidazo[1,2-a]pyridin-6-yl)-1H-indazol-6-yl)-5′-methoxyspiro[cyclopropane-1,3′-indolin]-2′-one 2,2,2-trifluoroacetate]
9 | < 100 | < 100 | COc1ccc2c(c1)[C@]1(C[C@H]1c1ccc3c(-c4ccc(OCCn5ccnc5)cc4)n[nH]c3c1)C(=O)N2 [Example A108, (1R,2S)-2-(3-(4-(2-(1H-imidazol-1-yl)ethoxy)phenyl)-1H-indazol-6-yl)-5′-methoxyspiro[cyclopropane-1,3′-indolin]-2′-one 2,2,2-trifluoroacetate]
10 | < 100 | < 100 | O=C1Nc2ccccc2[C@]12C[C@H]2c1ccc2c(/C=C/c3cc(F)c(CN4CCOCC4)c(F)c3)n[nH]c2c1 [Example A116, (1R,2S)-(E)-2-(3-(3,5-difluoro-4-(morpholinomethyl)styryl)-1H-indazol-6-yl)spiro[cyclopropane-1,3′-indolin]-2′-one 2,2,2-trifluoroacetate]
11 | < 100 | < 100 | COc1ccc2c(c1)[C@]1(C[C@H]1c1ccc3c(-c4ccc(C5CCN(C)CC5)cc4)n[nH]c3c1)C(=O)N2 [Example A123, (1R,2S)-5′-methoxy-2-(3-(4-(1-methylpiperidin-4-yl)phenyl)-1H-indazol-6-yl)spiro[cyclopropane-1,3′-indolin]-2′-one hydrochloride]
12 | < 100 | < 100 | CCN(CC)Cc1c(F)cc(/C=C/c2n[nH]c3cc([C@@H]4C[C@@]45C(=O)Nc4ccc(OC)cc45)ccc23)cc1F [Example A146, (1R,2S)-(E)-2-(3-(4-((diethylamino)methyl)-3,5-difluorostyryl)-1H-indazol-6-yl)-5′-methoxyspiro[cyclopropane-1,3′-indolin]-2′-one 2,2,2-trifluoroacetate]

The next lines start with the compound.

Row | SMILES | IC50 (human PLK4) [nM] | IC50 (Aurora B) [nM]
13 | COc1ccc2c(c1)[C@]1(C[C@H]1c1ccc3c(-c4ccc(OCCN(C)C)cc4)n[nH]c3c1)C(=O)N2 [Example A69, (1R,2S)-2-(3-(4-(2-(dimethylamino)ethoxy)phenyl)-1H-indazol-6-yl)-5′-methoxyspiro[cyclopropane-1,3′-indolin]-2′-one 2,2,2-trifluoroacetate salt] | < 100 | < 100
14 | CN1CCc2cc(-c3n[nH]c4cc([C@@H]5C[C@@]56C(=O)Nc5ccccc56)ccc34)ccc2C1 [Example A76, (1R,2S)-2-(3-(2-methyl-1,2,3,4-tetrahydroisoquinolin-6-yl)-1H-indazol-6-yl)spiro[cyclopropane-1,3′-indolin]-2′-one 2,2,2-trifluoroacetate salt] | < 100 | < 100
15 | CC(C)(c1ccc(/C=C/c2n[nH]c3cc([C@@H]4C[C@@]45C(=O)Nc4ccccc45)ccc23)cc1)N1CCOCC1 [Example A80, (1R,2S)-(E)-2-(3-(4-(2-morpholinopropan-2-yl)styryl)-1H-indazol-6-yl)spiro[cyclopropane-1,3′-indolin]-2′-one 2,2,2-trifluoroacetate salt] | < 100 | 100 to 1000
16 | CN1CCC(Cc2ccc(/C=C/c3n[nH]c4cc([C@@H]5C[C@@]56C(=O)Nc5ccccc56)ccc34)cc2)CC1 [Example A81, (1R,2S)-(E)-2-(3-(4-((1-methylpiperidin-4-yl)methyl)styryl)-1H-indazol-6-yl)spiro[cyclopropane-1,3′-indolin]-2′-one 2,2,2-trifluoroacetate salt] | < 100 | < 100
17 | COc1ccc2c(c1)[C@]1(C[C@H]1c1ccc3c(/C=C/c4ccc(CC5CCN(C)CC5)cc4)n[nH]c3c1)C(=O)N2 [Example A82, (1R,2S)-(E)-5′-methoxy-2-(3-(4-((1-methylpiperidin-4-yl)methyl)styryl)-1H-indazol-6-yl)spiro[cyclopropane-1,3′-indolin]-2′-one 2,2,2-trifluoroacetate salt] | < 100 | < 100
18 | CN1C(=O)[C@@]2(C[C@H]2c2ccc3c(/C=C/c4ccc(N5CCNCC5)cc4)n[nH]c3c2)c2ccccc21 [Example A90, (1R,2S)-(E)-1′-methyl-2-(3-(4-(piperazin-1-yl)styryl)-1H-indazol-6-yl)spiro[cyclopropane-1,3′-indolin]-2′-one hydrochloride] | < 100 | < 100
19 | O=C1Nc2ccccc2[C@]12C[C@H]2c1ccc2c(/C=C/c3ccc(N4CCNCC4)cc3)n[nH]c2c1 [Example A92, (1R,2S)-(E)-2-(3-(4-(piperazin-1-yl)styryl)-1H-indazol-6-yl)spiro[cyclopropane-1,3′-indolin]-2′-one 2,2,2-trifluoroacetate] | < 100 | < 100
20 | CN1C(=O)[C@@]2(C[C@H]2c2ccc3c(/C=C/c4ccc(CN5CCCCC5)cc4)n[nH]c3c2)c2ccccc21 [Example A94, (1R,2S)-(E)-1′-methyl-2-(3-(4-(piperidin-1-ylmethyl)styryl)-1H-indazol-6-yl)spiro[cyclopropane-1,3′-indolin]-2′-one hydrochloride] | < 100 | < 100
21 | COc1ccc2c(c1)[C@]1(C[C@H]1c1ccc3c(/C=C/c4ccc(CN5CCOCC5)s4)n[nH]c3c1)C(=O)N2 [Example A105, (1R,2S)-5′-methoxy-2-(3-((E)-2-(5-(morpholinomethyl)thiophen-2-yl)vinyl)-1H-indazol-6-yl)spiro[cyclopropane-1,3′-indolin]-2′-one hydrochloride] | < 100 | < 100
22 | CN1CCN(c2ccc(/C=C/c3n[nH]c4cc([C@@H]5C[C@@]56C(=O)N(C)c5ccccc56)ccc34)cn2)CC1 [Example A110, (1R,2S)-1′-methyl-2-(3-((E)-2-(6-(4-methylpiperazin-1-yl)pyridin-3-yl)vinyl)-1H-indazol-6-yl)spiro[cyclopropane-1,3′-indolin]-2′-one bis(2,2,2-trifluoro acetate)] | < 100 | < 100
23 | COc1ccc2c(c1)[C@]1(C[C@H]1c1ccc3c(/C=C/c4ccncc4)n[nH]c3c1)C(=O)N2 [Example A111, (1R,2S)-5′-methoxy-2-(3-((E)-2-(pyridin-4-yl)vinyl)-1H-indazol-6-yl)spiro[cyclopropane-1,3′-indolin]-2′-one 2,2,2-trifluoroacetate] | < 100 | < 100
24 | COc1ccc2c(c1)[C@]1(C[C@H]1c1ccc3c(-c4ccc(N5CCC(N6CCOCC6)CC5)cc4)n[nH]c3c1)C(=O)N2 [Example A121, (1R,2S)-5′-methoxy-2-(3-(4-(4-morpholinopiperidin-1-yl)phenyl)-1H-indazol-6-yl)spiro[cyclopropane-1,3′-indolin]-2′-one 2,2,2-trifluoroacetate] | < 100 | < 100
25 | COc1ccc2c(c1)[C@]1(C[C@H]1c1ccc3c(-c4ccc(N5CC[C@@H](N(C)C)C5)cc4)n[nH]c3c1)C(=O)N2 [Example A127, (1R,2S)-2-(3-(4-((R)-3-(dimethylamino)pyrrolidin-1-yl)phenyl)-1H-indazol-6-yl)-5′-methoxyspiro[cyclopropane-1,3′-indolin]-2′-one 2,2,2-trifluoroacetate] | < 100 | < 100
